These results are taken from ChEMBL document CHEMBL1201862, “PubChem BioAssay data set” (2004).

Common to all, as to experiment: NCI anticancer screen, dose series, 48 h
Test [1] relates to PC-3.
Test [2] has as its system NCI/ADR-RES.
The test system of test [3] is SR.
Test [4] deals with SF-268.
In test [5] the test system is Hs-578T.
Test [6] relates to HCT-15.
Test [7] deals with SK-MEL-5.
Test [8] concerns DU-145.
Test [9] relates to SNB-75.
The test system of test [10] is MCF7.
Test [11] relates to A498.
The subject of test [12] is MDA-N.
In test [13] the test system is SN12C.
Test [14] has as its system BT-549.
The subject of test [15] is Malme-3M.

Structures are written as SMILES.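 Tested at 5 concentrations; 48 h exposure; 96-well plates; endpoints linearly interpolated, else capped at highest concentration. GI50: concentration for 50% inhibition of growth.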 Active and inactive are the calls of the source. Rule as the data show it: active = GI50 up to about 1.1 µM and inactive = higher. Some results are limits rather than exact numbers.

For `Cc1ccc(/N=N/C(=N\NC(=O)c2ccc(C)cc2)c2ccc(N(CCC#N)CCC#N)cc2C)cc1`, the GI50 in [1] is 24 µM (inactive); in [2] it was 38.9 µM (inactive); in test [3] it was 18.7 µM (inactive); in [4], 22.5 µM (inactive); in test [5], 16.4 µM (inactive); in test [6] it was 33.5 µM. Also, the GI50 in [7] was 4.69 µM (inactive); in test [8] it was 57.8 µM (inactive); in test [9] it was 35.5 µM (inactive); in [10], 31 µM (inactive); in [11] it was > 100 µM (inactive); in test [12], 29.7 µM (inactive).
With `CCOC(=O)c1c(N=C(S)Nc2ccccc2)sc2c1CCN(C)C2`, the GI50 in test [1], in test [2], in [13], in test [4], in test [5] and in [14] was > 100 µM (inactive) in each case. Moreover, the GI50 is > 100 µM in test [6]; > 100 µM (inactive) in [7]; > 100 µM (inactive) in test [8]; > 100 µM (inactive) in [10]; > 100 µM (inactive) in test [11]; > 100 µM (inactive) in [12].
Take `O=C1c2ccccc2C(=O)N1/N=C1/SC(=N\c2ccccc2)/C(=N/c2ccccc2)N1c1ccccc1`: the GI50 in test [1] was > 52.6 µM (inactive); in test [2], > 100 µM (inactive); in [3], > 31.6 µM (inactive); in [15] it was > 47.3 µM (inactive); in test [13] it was > 39.3 µM (inactive); in [4], > 100 µM (inactive). The GI50 in test [5] is > 22.9 µM (inactive); in [14] it was > 48.4 µM (inactive); in test [6] it was > 47.5 µM; in test [7] it was > 39 µM (inactive); in test [8], > 100 µM (inactive); in test [9], 19.9 µM (inactive). In addition, the GI50 was > 68.1 µM (inactive) in test [10] and 19.7 µM (inactive) in test [11].
For `CCOC(=O)NC(OCc1ccccc1)(C(=O)OC)C(F)(F)F` (configuration not stated), the GI50 in [1], in [2], in test [3], in test [13], in test [4] and in test [5] was > 100 µM (inactive) throughout. Further, the GI50 in test [14] is > 100 µM (inactive); in [6], > 100 µM; in test [7], > 100 µM (inactive); in [8], > 100 µM (inactive); in [9], > 10 µM (inactive); in [10], > 100 µM (inactive). Moreover, the GI50 in test [12] was > 100 µM (inactive).
As to `COC(=O)C1=C(\c2ccccc2)c2ccccc2C(=O)N(C2CCCCC2)/C=C\1`, the GI50 in [1] is 10.5 µM (inactive); in test [2], 26.5 µM (inactive); in test [15] it was 25.3 µM (inactive); in [13], 28.3 µM (inactive); in test [4], 27.8 µM (inactive); in test [14], 23.1 µM (inactive). Further, the GI50 in [6] is 24.1 µM; in [7], 11.5 µM (inactive); in test [8], 60 µM (inactive); in [9], 65.6 µM (inactive); in test [10] it was 19.8 µM (inactive); in [11] it was 30.1 µM (inactive). Further, the GI50 in test [12] was 29.5 µM (inactive).
`CC1CC/C(=C\c2ccc(Cl)cc2)C(=O)/C1=C\c1ccc(Cl)cc1` (configuration not stated): the GI50 in test [1] was 34.4 µM (inactive); in test [13], 30.8 µM (inactive); in [4], 34.2 µM (inactive); in test [5], 36.8 µM (inactive); in test [14], 29.9 µM (inactive); in test [6], 22.4 µM. The GI50 in [7] was 20.4 µM (inactive); in [8], 49.2 µM (inactive); in test [9] it was 49.2 µM (inactive); in [10], 36.2 µM (inactive); in [11], 1.63 µM (inactive); in test [12], 51.2 µM (inactive).
Consider `O=C(N/N=C/c1ccccc1)c1c(F)c(F)c(F)c(F)c1F`, for which the GI50 in test [1], in test [2], in test [3], in test [15], in test [13] and in [4] was > 100 µM (inactive) throughout. For the same compound, the GI50 was > 100 µM (inactive) in test [5]; > 100 µM (inactive) in test [14]; 50.1 µM in test [6]; > 100 µM (inactive) in [7]; > 100 µM (inactive) in test [8]; > 100 µM (inactive) in test [9]. Moreover, the GI50 is > 100 µM (inactive) in test [11] and 28.8 µM (inactive) in [12].
Regarding `CCOC(=O)c1c(N)sc2c1C(C(=O)OCC)CCC2` (configuration not stated), the GI50 was 68.1 µM (inactive) in test [1]; 66.7 µM (inactive) in [3]; > 100 µM (inactive) in test [15]; > 100 µM (inactive) in test [13]; > 100 µM (inactive) in [5]; > 100 µM (inactive) in test [14]. Besides, the GI50 in test [6] is > 100 µM; in [7], 98.2 µM (inactive); in test [9], > 100 µM (inactive); in test [10], > 100 µM (inactive); in [11] it was 12.1 µM (inactive); in test [12], > 100 µM (inactive).
On to `Cc1ccc(NC(=O)C(Cc2c[nH]c3ccccc23)NC(=O)Oc2ccccc2)cc1C` (configuration not stated), for which the GI50 is 37.3 µM (inactive) in test [1]; 83.8 µM (inactive) in test [2]; 14.3 µM (inactive) in test [15]; 64.1 µM (inactive) in test [13]; 50.7 µM (inactive) in test [4]; 38.3 µM (inactive) in test [5]. The GI50 was 30.6 µM (inactive) in test [14]; 62.4 µM in [6]; 44.1 µM (inactive) in test [7]; > 100 µM (inactive) in test [8]; 41.2 µM (inactive) in [10]; 27.4 µM (inactive) in test [11]. In addition, the GI50 in test [12] is 55.8 µM (inactive).
As to `CCOC(=O)c1c(C)n(-c2ccc(C)cc2)c(=O)c2ccccc2c(=O)c2c(=O)ccc(=O)c1=2`, the GI50 was 17.1 µM (inactive) in test [1]; 18.5 µM (inactive) in test [2]; 17 µM (inactive) in [15]; 21.7 µM (inactive) in test [13]; 19.8 µM (inactive) in test [4]; 21.3 µM (inactive) in [5]. Moreover, the GI50 in test [14] is 23.3 µM (inactive); in test [6], 14.3 µM; in test [7] it was 14.7 µM (inactive); in test [8] it was 20 µM (inactive); in [9], 23.3 µM (inactive); in test [10], 18.8 µM (inactive).
Take `COC(=O)/C=C\C(C#N)(C#N)/N=C/c1cccs1`: the GI50 was 13.1 µM (inactive) in test [1]; 18.4 µM (inactive) in [2]; 2.65 µM (inactive) in test [15]; 14.7 µM (inactive) in test [13]; 15 µM (inactive) in [4]; 24.8 µM (inactive) in test [5]. In addition, the GI50 in test [14] is 7.89 µM (inactive); in test [6], 2.13 µM; in [7], 0.813 µM (active); in test [8], 10.7 µM (inactive); in test [9], 15.3 µM (inactive); in test [10], 2.01 µM (inactive). The figures for the GI50 in test [11] and in test [12] were 19.9 µM (inactive) and 8.22 µM (inactive), respectively.
Consider `Fc1ccc2c(c1)SC1=Nc3sc4cc(F)ccc4[n+]3CN12`, for which the GI50 is 21.4 µM (inactive) in test [1]; 18.2 µM (inactive) in test [2]; 18.7 µM (inactive) in [15]; 17.3 µM (inactive) in [13]; 29.6 µM (inactive) in [4]; 9.98 µM (inactive) in test [5]. For the same compound, the GI50 in test [14] was 14.8 µM (inactive); in [6], 29.5 µM; in [7], 11.1 µM (inactive); in test [8], 26.7 µM (inactive); in test [9], 15.9 µM (inactive); in test [10], 21.6 µM (inactive). Further, the GI50 in test [11] is 12.7 µM (inactive).
Consider `COC(=O)c1ccc(CN2CCc3c([nH]c4ccccc34)C2CO)o1` (configuration not stated), for which the GI50 in [1], in [3], in test [15], in test [13], in test [4] and in [14] was > 10 µM (inactive) throughout. Also, the GI50 in test [6] was > 10 µM; in [7] it was > 10 µM (inactive); in test [8] it was > 10 µM (inactive); in test [9], > 10 µM (inactive); in test [10], > 10 µM (inactive); in test [12] it was > 10 µM (inactive).
Turning to `OCCCC(O)(c1ccccc1)c1ccccc1`, the GI50 in test [1], in [2], in test [3], in test [15], in [13] and in [4] was > 100 µM (inactive) in each case. The GI50 in [5] is > 100 µM (inactive); in [14], > 100 µM (inactive); in test [6], > 100 µM; in test [7], > 100 µM (inactive); in [9], > 100 µM (inactive); in test [10], > 100 µM (inactive).
As for `COc1ccc(-c2c3c(nc4nc(SCCc5ccccc5)nc(N)c24)CCCC3)cc1OC`, the GI50 in [1], in [2], in test [3], in test [15], in test [13] and in test [4] was > 100 µM (inactive) each time. Further, the GI50 in test [5] is 27 µM (inactive); in test [14], > 100 µM (inactive); in test [6], > 100 µM; in test [7], > 100 µM (inactive); in test [8], > 100 µM (inactive); in [9], 20.5 µM (inactive). In addition, the GI50 in test [10] and in test [12] was > 100 µM (inactive) in each case.
As to `Cc1ccc(S(=O)(=O)N2c3ccccc3[C@H]3CCc4c([nH]c5ccccc45)[C@H]32)cc1`, the GI50 is > 100 µM (inactive) in test [1]; > 100 µM (inactive) in test [2]; > 100 µM (inactive) in test [13]; > 100 µM (inactive) in test [4]; > 100 µM (inactive) in test [14]; 32 µM (inactive) in test [7]. Further, the GI50 is > 100 µM (inactive) in test [8], > 100 µM (inactive) in test [9], > 100 µM (inactive) in test [10] and 30 µM (inactive) in [12].
